The values below come from ChEMBL document CHEMBL3714736, “Heterocyclic compounds for the inhibition of PASK” (2015).

Active and inactive are the calls of the source. The rule behind the calls is not given here.

Series [1] addresses T1, PAS domain-containing serine/threonine-protein kinase (Homo sapiens, UniProt Q96RG2). As to the kind of experiment: Inhibition of human recombinant PASK using Ulight-peptide substrate incubated for 2 hrs by TR-FRET assay.
Series [2] has as its system Mus musculus. As to the kind of experiment: Reduction in body weight in high-fat diet fed C57B16 mouse with fast/re-feed at 30 to 100 mg/kg, po daily for 3 days. In kind it is functional, organism-based.
In series [3] the test system is Mus musculus. As to the kind of experiment: Reduction in liver weight in high-fat diet fed C57B16 mouse with fast/re-feed at 30 to 100 mg/kg, po daily for 3 days. It is filed as functional.
In series [4] the test system is Mus musculus. The experiment in a line: Reduction in liver weight in high-fat diet fed C57B16 mouse with fast/re-feed at 30 mg/kg, po daily for 3 days. In kind it is functional.
Series [5] relates to Mus musculus. As to the kind of experiment: Reduction in liver weight in high-fat diet fed C57B16 mouse with fast/re-feed at 100 mg/kg, po daily for 3 days. It is filed as functional. Particulars: for inhibition in vivo at 100 mg/kg: 72 h.
Series [6] relates to Mus musculus. As to the kind of experiment: Reduction in plasma glucose level in high-fat diet fed C57B16 mouse with fast/re-feed at 30 to 100 mg/kg, po daily for 3 days by colorimetric assay. In kind it is functional, organism-based.
Series [7] concerns Mus musculus. As to the kind of experiment: Reduction in plasma glucose level in high-fat diet fed C57B16 mouse with fast/re-feed at 100 mg/kg, po daily for 3 days by colorimetric assay. It is filed as functional. The conditions noted are these: 72 h.
Series [8] concerns Mus musculus. The experiment in a line: Reduction in plasma glucose level in fasted C57B16 mouse at 30 to 100 mg/kg, po daily for 3 days by colorimetric assay. In kind it is functional, organism-based.
Series [9] relates to Mus musculus. As to the kind of experiment: Reduction in plasma insulin level in high-fat diet fed C57B16 mouse with fast/re-feed at 30 to 100 mg/kg, po daily for 3 days by colorimetric assay. It is filed as functional, organism-based.
Series [10] concerns Mus musculus. As to the kind of experiment: Reduction in plasma insulin level in fasted fed C57B16 mouse at 30 mg/kg, po daily for 3 days by colorimetric assay. Particulars: 72 h. It is filed as functional.
Series [11] has as its system Mus musculus. As to the kind of experiment: Reduction in plasma insulin level in fasted fed C57B16 mouse at 100 mg/kg, po daily for 3 days by colorimetric assay. It is filed as functional. Particulars: 72 h.
Series [12] deals with Rattus norvegicus. As to the kind of experiment: Reduction in body weight in high fructose diet fed Sprague-Dawley rat with fast/re-feed at 30 and 100 mg/kg, po dosed once daily for 7 days. In kind it is functional, organism-based.
Series [13] deals with Rattus norvegicus. As to the kind of experiment: Reduction in liver weight in high fructose diet fed Sprague-Dawley rat with fast/re-feed at 30 and 100 mg/kg, po dosed once daily for 7 days. It is filed as functional, organism-based.
For series [14], the system named is Rattus norvegicus. The experiment in a line: Reduction in liver weight in high fructose diet fed Sprague-Dawley rat with fast/re-feed at 100 mg/kg, po dosed once daily for 7 days. Particulars: 168 h. It is filed as functional.
Series [15] has as its system Rattus norvegicus. As to the kind of experiment: Reduction in plasma glucose level in high fructose diet fed Sprague-Dawley rat with fast/re-feed at 30 and 100 mg/kg, po dosed once daily for 7 days by colorimetric assay. It is filed as functional, organism-based.
For series [16], the system named is Rattus norvegicus. The experiment in a line: Reduction in plasma triglyceride level in high fructose diet fed Sprague-Dawley rat with fast/re-feed at 30 and 100 mg/kg, po dosed once daily for 7 days by colorimetric assay. In kind it is functional, organism-based.
The test system of series [17] is Rattus norvegicus. As to the kind of experiment: Reduction in plasma cholesterol level in high fructose diet fed Sprague-Dawley rat with fast/re-feed at 30 and 100 mg/kg, po dosed once daily for 7 days by colorimetric assay. It is filed as functional, organism-based.
Series [18] concerns the target T1, PAS domain-containing serine/threonine-protein kinase. The experiment in a line: Inhibition of N-terminal GST-tagged human recombinant PASK kinase domain (879 to 1323 residues) expressed in insect cells using MBP protein substrate incubated for 120 mins in presence of [33P]ATP by scintillation counting based radiochemical assay.
Series [19] deals with Rattus norvegicus. As to the kind of experiment: Reduction in body weight in high fructose diet fed Sprague-Dawley rat with fast/re-feed at 30 mg/kg, po dosed once daily for 7 days. In kind it is functional, organism-based.
For series [20], the system named is Rattus norvegicus. The experiment in a line: Increase in liver weight in high fructose diet fed Sprague-Dawley rat with fast/re-feed at 30 mg/kg, po dosed once daily for 7 days. In kind it is ADME, organism-based. The conditions noted are these: in vivo, 168 h.
In series [21] the test system is Rattus norvegicus. The experiment in a line: Reduction in plasma glucose level in high fructose diet fed Sprague-Dawley rat with fast/re-feed at 30 mg/kg, po dosed once daily for 7 days by colorimetric assay. It is filed as functional.

T1 sequence (Q96RG2 whole entry, the tested form may be a part): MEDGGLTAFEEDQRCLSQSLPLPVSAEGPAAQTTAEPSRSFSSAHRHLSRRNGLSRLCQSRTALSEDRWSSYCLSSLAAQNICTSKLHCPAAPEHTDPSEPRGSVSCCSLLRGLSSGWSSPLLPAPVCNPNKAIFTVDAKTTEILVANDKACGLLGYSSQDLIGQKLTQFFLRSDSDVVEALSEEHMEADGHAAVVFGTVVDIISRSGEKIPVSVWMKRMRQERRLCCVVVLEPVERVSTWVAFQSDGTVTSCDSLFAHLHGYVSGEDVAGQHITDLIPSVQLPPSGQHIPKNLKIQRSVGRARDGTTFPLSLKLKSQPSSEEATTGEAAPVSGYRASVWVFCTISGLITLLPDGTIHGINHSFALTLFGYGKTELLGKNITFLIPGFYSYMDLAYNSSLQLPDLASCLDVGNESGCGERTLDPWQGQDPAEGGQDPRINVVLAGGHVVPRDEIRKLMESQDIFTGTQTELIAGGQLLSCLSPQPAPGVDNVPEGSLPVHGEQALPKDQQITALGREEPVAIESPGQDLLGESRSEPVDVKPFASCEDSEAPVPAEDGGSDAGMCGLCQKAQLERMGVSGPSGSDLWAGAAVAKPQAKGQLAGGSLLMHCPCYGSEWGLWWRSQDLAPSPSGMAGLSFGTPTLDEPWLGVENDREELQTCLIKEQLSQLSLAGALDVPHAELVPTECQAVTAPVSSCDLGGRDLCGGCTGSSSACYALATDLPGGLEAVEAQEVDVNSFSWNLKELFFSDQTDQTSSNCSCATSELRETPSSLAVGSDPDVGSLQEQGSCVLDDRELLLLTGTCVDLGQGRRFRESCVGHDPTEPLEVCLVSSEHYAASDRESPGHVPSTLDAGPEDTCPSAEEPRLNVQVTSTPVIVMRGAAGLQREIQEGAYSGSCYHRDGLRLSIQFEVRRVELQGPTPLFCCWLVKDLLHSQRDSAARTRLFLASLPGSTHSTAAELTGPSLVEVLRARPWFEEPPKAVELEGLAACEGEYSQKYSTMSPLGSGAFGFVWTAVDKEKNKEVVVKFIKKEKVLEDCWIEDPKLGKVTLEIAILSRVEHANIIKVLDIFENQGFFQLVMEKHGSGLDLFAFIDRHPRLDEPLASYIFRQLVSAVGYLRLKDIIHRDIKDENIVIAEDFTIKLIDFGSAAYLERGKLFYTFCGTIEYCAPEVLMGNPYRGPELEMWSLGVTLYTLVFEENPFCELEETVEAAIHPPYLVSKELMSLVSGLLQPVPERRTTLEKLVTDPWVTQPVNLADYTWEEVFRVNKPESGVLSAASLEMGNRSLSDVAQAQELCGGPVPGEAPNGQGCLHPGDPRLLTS

As for `CC(C)N(C)c1nc2cc(C(=O)O)ccc2nc1-c1ccc2nccn2c1`, the IC50 in [1] is at most 10 µM.
Turning to `CC(C)N(C)c1nc2cc(C(=O)O)ccc2nc1-c1ccc(F)cc1`, the inhibition result with Mus musculus [2], in the series with Mus musculus [3], in the series with Mus musculus [4], in the series with Mus musculus [5], in the series with Mus musculus [6] and in the series on Mus musculus [8] was “Dose-dependent effect” in each case. In addition, the inhibition entry with Mus musculus [9], in the series on Rattus norvegicus [15] and in the series on Rattus norvegicus [16] was “Dose-dependent effect” throughout. Moreover, the “inhibition (INH)” value with Mus musculus [3] is listed as 7%. Moreover, the inhibition in vivo at 30 mg/kg with Mus musculus [4] (72 h) is 7%; with Mus musculus [10] it was at most 26%. The inhibition in vivo at 100 mg/kg in the series with Mus musculus [5] is 7%; in the series with Mus musculus [7], at most 27%; in the series on Mus musculus [11], at most 26%; in the series with Rattus norvegicus [14], 4%. The inhibition entry in the series on Rattus norvegicus [12], in the series with Rattus norvegicus [13] and with Rattus norvegicus [17] was “Active” each time.
As to `CN(C1CCN(c2nc3cc(C(=O)O)ccc3nc2-c2ccccc2)CC1)S(C)(=O)=O`, the IC50 in series [18] is at most 10 µM.
The molecule `CC(C)OC(=O)C1=CN(C(=O)c2ccc(F)c(F)c2)CC(C)(C)c2c1[nH]c1ccccc21` [TUROFEXORATE ISOPROPYL] yielded an inhibition in vivo at 100 mg/kg with Mus musculus [5] of 7%. For the same molecule, in the series with Rattus norvegicus [19], the outcome was inactive. This molecule also yielded an Activity in the series on Rattus norvegicus [20] of 15%. The inhibition result in the series on Rattus norvegicus [21] was “inactive”.
As to `O=C(O)c1ccc2nc(-c3ccc4c(c3)OCO4)c(N3CCCc4ccccc43)nc2c1`, the IC50 in series [1] is at most 10 µM.
